# In patent US5602171A, “Methods of inhibiting phosphatase activity and treatment of disorders associated therewith using naphthopyrones and derivatives thereof” (Sugen Inc., priority 1995, dated 1997):
# Test system: 3T3-L1 cells
# Experiment: Glucose transport assay
# Format: cell-based
# Conditions: differentiated 3T3-L1 preadipocyte cell line, in the absence of insulin; 0.1 μM to 500 μM, 1-4 hours
# Source text: This assay was used to assess the ability of the compounds of the invention to inhibit phosphatase activity that is involved in the signaling pathway that regulates the insulin-induced facilitated transport of glucose into adipocytes. […] Any compounds of the invention may be tested in this assay.
# The cell line used for the glucose transport assay was 3T3-L1, a preadipocyte cell line (American Type Culture Collection CCL92.1) which overexpress the insulin receptor. The 3T3-L1 cells were first differentiated by treating cells under confluent growth in DMEM containing 10% fetal bovine serum (FBS) with 0.5 mM 3-isobutyl-1-methyl-xanthine, 5 μg/ml porcine insulin, […] dexamethasone for 2 days. The cells were then grown in DMEM containing 10% FBS and 5 μg/ml porcine insulin for two days, after which the cells were cultured in DMEM containing only 10% FBS.
# Cells for use in the assay were first grown overnight in DMEM media and 1% FBS at 37° C. at 5% CO2. Two hours before use, the overnight media was replaced with serum free DMEM containing 5 mM glucose. […] The wells were washed each with 200 μl PBS which was transferred to the corresponding scintillation vial. ^3 H radioactivity was counted with a Beckman counter.
smiles,measurement,value
CC1CC(=O)c2c(cc3c(-c4c(O)cc(O)c5c(O)c6c(cc45)OC(C)CC6=O)c(O)cc(O)c3c2O)O1 (stereo not shown) [Compound 1],uptake of 2-deoxy-3H-glucose,Dose response effect
